Data taken from US6875769B2, “Substituted6,6-hetero-bicyclicderivatives” (Pfizer Inc., priority 1997, dated 2005).

Structure (SMILES) | melting point [°C]
CCC(CC)Oc1cc(C)nc2c1c(Cl)nc(=O)n2-c1c(C)cc(C)cc1C [Example 17, 4-Chloro-5-(1-ethyl-propoxy)-7-methyl-1-(2,4,6-trimethyl-phenyl)-1H-pyrido[2,3-d]pyrimidin-2-one] | 125 to 127
CCC(CC)Oc1cc(C)nc2c1c(=O)[nH]c(=O)n2-c1c(C)cc(C)cc1C [Example 18, 5-(1-Ethyl-propoxy)-7-methyl-1-(2,4,6-trimethyl-phenyl)-1H-pyrido[2,3-d]pyrimidine-2,4-dione] | 105 to 107
CCC(CC)Nc1cc(C)nc2c1CCC(=O)N2c1c(C)cc(C)cc1C [Example 12, 5-(1-Ethyl-propylamino)-7-methyl-1-(2,4,6-trimethyl-phenyl)-3,4-dihydro-1H-[1,8]naphthyridin-2-one] | 124 to 126
